Four molecules from PMC7531004, “Discovery of gramicidin A analogues with altered activities by multidimensional screening of a one-bead-one-compound library” (Nature Communications, 2020) can be followed below.

Structures are written as SMILES. Where a SMILES comes first, the peptide text is derived from it. [ ]: non-standard residue; d: D form. The star is where a group is joined. NHCH2CH2OH = OCCN*; For = O=C*

The term viability denotes a read-out of living cells in per cent, often relative to untreated cells.

For data set [1] the following is noted: cell viability/%. The gist of the method: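 Peptide stocks diluted 250× in growth medium; P388 cells 1 × 10^4 cells/mL final; 37 °C, 5% CO2, 92 h. WST-1 + 1-methoxy PMS, 4 h, A415. Output: % viability.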
Data set [2] is described as follows: H+/Na+ transport assay of bead-derived peptides (one-point).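 Also: relative to parent gramicidin A activity set to 1.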 On the set-up: key: relative activity; mean of two control wells = 1.00. The following applies: bead-derived peptide solution, EYPC/EYPG LUVs. Format: biochemical. The method, boiled down: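 One-point screen: peptide + pyranine-loaded LUVs, 30 min RT with vortexing, 96-well. Read-out is fluorescence intensity scaled as 100 × (Ix – I0)/(Imax – I0). Imax from Triton X-100, I0 from untreated vesicles, and the mean of the two control wells is set to 1.00.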

For data set [3], the system named is Streptococcus pyogenes SSI-9. Kind of data set: Antibacterial activity assay of bead-derived peptides (three concentrations). On the set-up: key: +++: inhibition by the 640-fold diluted peptide solution; ++: inhibition by the 160-fold diluted solution; +: inhibition by the 40-fold diluted solution; -: no inhibition. Type of data set: cell-based. The note with it: S. pyogenes, bead-derived peptide solution, three concentrations. The gist of the method: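 First, each peptide stock was diluted 4- and 16-fold in DMSO; next, the three solutions were mixed with S. pyogenes SSI-9 suspension (2 × 10^5 CFU) in cation-adjusted Mueller Hinton Broth plus 5% laked horse blood; finally, plates stood 18 h at 37 °C before checking for grown-cell precipitation.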

`CC(C)C[C@@H](NC(=O)[C@H](C)NC(=O)[C@H](NC(=O)[C@H](C)NC(=O)CNC(=O)[C@@H](NC=O)C(C)C)C(C)C)C(=O)N[C@H](C(=O)N[C@@H](C(=O)N[C@@H](Cc1c[nH]c2ccccc12)C(=O)N[C@H](CC(C)C)C(=O)N[C@@H](Cc1c[nH]c2ccccc12)C(=O)N[C@@H](C(=O)N[C@@H](Cc1c[nH]c2ccccc12)C(=O)N[C@@H](C(=O)N[C@@H](Cc1c[nH]c2ccccc12)C(=O)NCCO)[C@H](C)O)[C@H](C)O)C(C)C)C(C)C` [compound 13040] (For-VGA[dV]A[dL]V[dV]W[dL]W[dT]W[dT]W-NHCH2CH2OH) yielded a viability in data set [1] of 100%. The “H+/Na+ transport activity normalized against the value of 1 (1.00)” value (“H+/Na+ transport activity normalized” for short) in data set [2] came to 1.01. In addition, the antibacterial activity entry in data set [3] is given as “-”.

As to `CNC(=O)C[C@@H](NC(=O)[C@H](C)NC(=O)[C@H](NC(=O)[C@H](C)NC(=O)CNC(=O)[C@@H](NC=O)C(C)C)C(C)C)C(=O)N[C@H](C(=O)N[C@H](CC(C)C)C(=O)N[C@@H](Cc1c[nH]c2ccccc12)C(=O)N[C@@H](C(=O)N[C@@H](Cc1c[nH]c2ccccc12)C(=O)N[C@@H](C(=O)N[C@@H](Cc1c[nH]c2ccccc12)C(=O)N[C@@H](C(=O)N[C@@H](Cc1c[nH]c2ccccc12)C(=O)NCCO)C(C)C)C(C)C)C(C)C)C(C)C` [compound 13148] (For-VGA[dV]A[dD](NHMe)V[dL]W[dV]W[dV]W[dV]W-NHCH2CH2OH), the viability in data set [1] stood at 93.6%. The “H+/Na+ transport activity normalized” value in data set [2] is recorded as 1.03. Besides, the antibacterial activity entry in data set [3] is “-”.

`CC(C)C[C@@H](NC(=O)[C@H](Cc1c[nH]c2ccccc12)NC(=O)[C@@H](CC(C)C)NC(=O)[C@H](Cc1c[nH]c2ccccc12)NC(=O)[C@@H](CC(C)C)NC(=O)[C@H](Cc1c[nH]c2ccccc12)NC(=O)[C@H](NC(=O)[C@@H](NC(=O)[C@H](NC(=O)[C@H](C)NC(=O)[C@H](NC(=O)[C@H](C)NC(=O)CNC(=O)[C@@H](NC=O)C(C)C)C(C)C)[C@H](C)O)C(C)C)C(C)C)C(=O)N[C@@H](Cc1c[nH]c2ccccc12)C(=O)NCCO` [compound 13151] (For-VGA[dV]A[dT]V[dV]W[dL]W[dL]W[dL]W-NHCH2CH2OH) had a viability in data set [1] of 100%. Besides, the “H+/Na+ transport activity normalized” value in data set [2] amounted to 1.01. In addition, the antibacterial activity result in data set [3] was “-”.

`CC(C)C[C@@H](NC(=O)[C@H](Cc1c[nH]c2ccccc12)NC(=O)[C@H](NC(=O)[C@H](Cc1c[nH]c2ccccc12)NC(=O)[C@@H](CC(C)C)NC(=O)[C@@H](NC(=O)[C@H](NC(=O)[C@H](C)NC(=O)[C@H](NC(=O)[C@H](C)NC(=O)CNC(=O)[C@@H](NC=O)C(C)C)[C@H](C)O)C(C)C)C(C)C)[C@H](C)O)C(=O)N[C@@H](Cc1c[nH]c2ccccc12)C(=O)N[C@@H](C(=O)N[C@@H](Cc1c[nH]c2ccccc12)C(=O)NCCO)C(C)C` [compound 13245] (For-VGA[dT]A[dV]V[dL]W[dT]W[dL]W[dV]W-NHCH2CH2OH): the viability in data set [1] is 100%. The “H+/Na+ transport activity normalized” value in data set [2] was determined as 1.07. Besides, the antibacterial activity entry in data set [3] is “-”.
